{"source": "patent US20260355161A1", "about": "“NOVEL HETEROCYCLYL-PHENYL-METHYLAMINE DERIVATIVES, PREPARATION METHOD THEREOF, AND USE THEREOF IN PREVENTING, ALLEVIATING, OR TREATING MULTIPLE SCLEROSIS” (Cureverse Incorporated, priority 2022, published 2026)", "key": {"S1P3 receptor": {"system": "S1P3 receptor", "settings": "background art; cited from earlier work"}, "[1]": {"settings": "background art; cited from earlier work"}, "S1P1 [2]": {"molecular_target": "T1, S1P1 (Homo sapiens, UniProt P21453)", "T1 sequence (P21453 whole entry)": "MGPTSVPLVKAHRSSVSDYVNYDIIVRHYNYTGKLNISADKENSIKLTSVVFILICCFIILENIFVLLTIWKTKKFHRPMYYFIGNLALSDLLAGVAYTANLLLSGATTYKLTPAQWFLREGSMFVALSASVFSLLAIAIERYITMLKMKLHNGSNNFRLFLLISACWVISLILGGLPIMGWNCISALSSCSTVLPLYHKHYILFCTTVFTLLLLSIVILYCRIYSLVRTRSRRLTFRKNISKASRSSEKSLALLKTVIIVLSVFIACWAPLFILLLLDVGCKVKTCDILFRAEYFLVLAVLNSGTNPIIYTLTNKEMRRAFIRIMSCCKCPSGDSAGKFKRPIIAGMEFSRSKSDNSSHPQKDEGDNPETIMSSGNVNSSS", "settings": "background art; cited from earlier work"}, "S1P5": {"system": "S1P5", "settings": "background art; cited from earlier work"}, "S1P1 [3]": {"molecular_target": "T1, S1P1", "test": "β-arrestin recruitment after S1P1 receptor activation, S1P1 overexpressing cell line (luminescence)", "settings": "based on the two EC50 values of Table 1"}}, "data": [{"smiles": "CCCCCCCCc1ccc(CCC(N)(CO)CO)cc1", "note": "[fingolimod]", "values": [{"measurement": "activation of S1P3", "setting": "S1P3 receptor", "value": "activation of the S1P3 receptor"}, {"measurement": "bradycardia side effect", "setting": "[1]", "value": "causes bradycardia"}]}, {"smiles": "CCc1cc(/C(C)=N/OCc2ccc(C3CCCCC3)c(C(F)(F)F)c2)ccc1CN1CC(C(=O)O)C1", "note": "[BAF312]", "values": [{"measurement": "activity against S1P1", "setting": "S1P1 [2]", "value": "excellent activity"}, {"measurement": "activation of S1P3", "setting": "S1P3 receptor", "value": "without activating S1P3"}, {"measurement": "bradycardia side effect", "setting": "[1]", "value": "bradycardia, a side effect of FTY720, still occurred"}, {"measurement": "activity against S1P5", "setting": "S1P5", "value": "excellent activity"}]}, {"smiles": "CC(C)Oc1ccc(-c2ncc(-c3ccc(CN4CC(C(=O)[O-])C4)cc3)[se]2)cc1Cl.[Na+]", "note": "[Compound 13, Sodium 1-(4-(2-(3-chloro-4-isopropoxyphenyl)-1,3-selenazole-5-yl)benzyl)azetidine-3-carboxylate]", "values": [{"measurement": "S1P1 activity (overall, in words)", "setting": "S1P1 [3]", "value": "excellent activity"}]}]}
